The values below come from ChEMBL document CHEMBL5335826, “Biochemical and Structural Studies of the Carminomycin 4-O-Methyltransferase DnrK” (J Nat Prod, 2024).

The test system of one assay is A549. The assay can be described thus: Cytotoxicity against human A549 cells assessed as reduction in cell viability incubated for 72 hrs by alamar blue assay. Type of assay: functional, cell-based. The settings on record: A549, 72 h.
The subject of a further assay is PC-3. The assay can be described thus: Cytotoxicity against human PC-3 cells assessed as reduction in cell viability incubated for 72 hrs by alamar blue assay. Type of assay: functional, cell-based. The settings on record: PC-3, 72 h. For orientation: Resazurin is reduced to fluorescent resorufin, in cell work by metabolically active cells.

The structures appear in SMILES notation.

In general, IC50 refers to the concentration that gives 50% inhibition. In the case of `COc1cc(O)c2c(c1)C(=O)c1cc3c(c(O)c1C2=O)[C@@H](O[C@@H]1O[C@@H](C)[C@H](OC)[C@@H](O)[C@H]1OC)[C@H](OC)[C@](C)(O)C3=O`, the values for the IC50 in the assay on A549 and in the assay with PC-3 were 2800 nM and 3100 nM, respectively.

Turning to `COc1cccc2c1C(=O)c1c(cc3c(c1O)[C@@H](O[C@@H]1O[C@@H](C)[C@H](O)[C@@H](O)[C@H]1OC)[C@H](OC)[C@](C)(O)C3=O)C2=O`, the IC50 with A549 was determined as 13800 nM; in the assay on PC-3, 4300 nM.

As to `CO[C@H]1[C@H](O[C@@H]2c3c(cc4c(c3O)C(=O)c3c(O)cccc3C4=O)C(=O)[C@@](C)(O)[C@H]2OC)O[C@@H](C)[C@H](O)[C@H]1O` [ARANCIAMYCIN], the results for the half-maximal inhibitory concentration (IC50) with A549 and in the assay with PC-3 were 2700 nM and 1100 nM, respectively.

On to `CC(=O)[C@]1(O)Cc2c(O)c3c(c(O)c2[C@@H](O[C@H]2C[C@H](N)[C@H](O)[C@H](C)O2)C1)C(=O)c1c(O)cccc1C3=O` [CARUBICIN], for which the IC50 in the assay with A549 is 13.1 nM; with PC-3, 35 nM.

Turning to `COc1cccc2c1C(=O)c1c(O)c3c(c(O)c1C2=O)C[C@@](O)(C(C)=O)C[C@@H]3O[C@H]1C[C@H](N)[C@H](O)[C@H](C)O1` [DAUNORUBICIN], the figures for the IC50 with A549 and in the assay with PC-3 were 199 nM and 170 nM, respectively.
